Patent US20260374766A1, “METHODS FOR TREATING CANCER” (Antares Therapeutics, Inc., priority 2022, published 2026)
Like-named read-outs stand apart in the source and are kept apart here.

Tests used:
p53 Y220C = p53 Y220C (Homo sapiens, UniProt P04637, Y220C); assay: Luciferase Reporter Assay (Luc), p53 response element, NClH1299 cells with inducible p53 Y220C; assay type: cell-based; conditions: luciferase reporter, NClH1299 inducible p53 Y220C, 6 hour; for AC50: read-out: Luc P53 Y220C AC50
How it was run: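 Cells were seeded at 5,000 per well and induced with 0.5 ug/mL doxycycline for 24 hours, then exposed to compound for 6 hours. One-Glo reagent was added, plates shaken 5 minutes at room temperature, and luminescence read immediately.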

[1] = biological target: T1, p53 Y220C mutant protein (amino acid residues 94-293) (Homo sapiens, UniProt P04637, Y220C); assay: Thermal Shift Assay (TSA), dTM; assay type: binding; conditions: for ΔTm at 10 µM: 10 uM compound; for ΔTm at 100 µM: 100 uM compound
T1 construct: p53 Y220C mutant protein (amino acid residues 94-293)
How it was run: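 Sypro Orange melt (30→50 °C, 0.03 °C/s) with TM taken from a Boltzmann two-state fit. Protein (residues 94-293) at 5 μM was pre-incubated 3 h at 20 °C with compound at 10 μM or 100 μM in pH 7.4 HEPES/NaCl buffer containing 0.01% Pluronic F-127 and 1% DMSO.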

H1299 p53 Y220C = assay: Cell Proliferation Assay (CellTiter-Glo, CTG), H1299 p53 Y220C (NClH1299-inducible p53 Y220C); assay type: cell-based; conditions: Homo sapiens, NCI-H1299, 120 h, CellTiter-Glo, 5 days
How it was run: (§1)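 NClH1299 lines stably transduced with Tet-inducible p53 Y220C or R273H, plus NUGC3, were treated with compound for 5 days at 250-500 cells/well. IC50 derived from CellTiter-Glo luminescent signal after 10 min room-temperature incubation.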

[2] = biological target: T1, p53 Y220C mutant protein (amino acid residues 94-293); assay: Surface Plasmon Resonance (SPR) assay, Kd_kinetic; assay type: binding; conditions: SPR, p53 Y220C, read-out: SPR P53 Y220C KD kinetic
How it was run: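 Biacore 8K SPR; 16 or 20 °C; Tris 50 mM pH 7.5, NaCl 100 mM, DTT 1 mM, Brij35 0.01%, Tween-20 0.05%, DMSO 1%. Kd_kinetic by 1:1 fit.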

H1299 p53 R273H = assay: Cell Proliferation Assay (CellTiter-Glo, CTG), H1299 p53 R273H (NClH1299-inducible p53 R273H); assay type: cell-based; conditions: Homo sapiens, NCI-H1299, 120 h, CellTiter-Glo, 5 days
How it was run: as §1

NUGC3 p53 Y220C = assay: Cell Proliferation Assay (CellTiter-Glo, CTG), NUGC3 p53 Y220C; assay type: cell-based; conditions: Homo sapiens, NUGC-3, 120 h, CellTiter-Glo, 5 days
How it was run: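 Tet-One inducible p53 Y220C or R273H constructs were stably introduced into NCI-H1299 by lentiviral transduction; NUGC3 was used as is. Cells (250-500 per well) were exposed to compound for 5 days, then CellTiter-Glo was added for 10 min at room temperature and IC50 was calculated from luminescence.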

[3] = 10 uM tool compound as positive control
[4] = thermal shift, read-out: TSA P53 Y220C dTM (10 uM)
[5] = thermal shift, read-out: TSA P53 Y220C dTM (100 uM)
[6] = p53 Y220C, read-out: TSA P53 Y220C dTM
[7] = NClH1299-inducible p53 Y220C cells
[8] = NClH1299-inducible p53 R273H cells

Row | Structure (SMILES) | Emax (p53 Y220C; [3]) [%] | AC50 (p53 Y220C) [µM] | ΔTm at 10 µM [1, 4] [°C] | ΔTm at 100 µM [1, 5] [°C] | IC50 (H1299 p53 Y220C; H1299 p53 Y220C) [µM] | Kd ([2]; kinetic KD) [µM] | IC50 (H1299 p53 R273H; H1299 p53 R273H) [µM] | IC50 (NUGC3 p53 Y220C; NUGC3 p53 Y220C) [µM] | AC50 (p53 Y220C; AC50) [µM] | Emax (p53 Y220C; Emax) [%] | ΔTm at 10 µM [1, 6] [°C] | ΔTm at 100 µM [1, 6] [°C] | IC50 (H1299 p53 Y220C; [7]) [µM] | Kd [2] [µM] | IC50 (H1299 p53 R273H; [8]) [µM] | IC50 (NUGC3 p53 Y220C; NUGC3 cells) [µM]
1 | CNC(=O)c1ccc(NCC#Cc2nc3c(N[C@@H]4CCNC(=O)C4)cccn3c2SC(F)(F)F)c(OC)c1 [Example 175] | < 70 | > 3 | 5 to 10 | 5 to 10 | > 3 | 0.01 to 0.1 | ≥ 10 | > 3 |  |  |  |  |  |  |  | 
2 | CNC(=O)c1ccc(NCC#Cc2nc3c(N[C@@H]4CCc5ncnn5C4)cccn3c2SC(F)(F)F)c(OC)c1 (stereo in doubt) [Example 190] | > 90 | < 0.75 | 5 to 10 | ≥ 10 | < 0.75 | < 0.01 | ≥ 10 | < 0.75 |  |  |  |  |  |  |  | 
3 | CNC(=O)c1ccc(OC)c(NCC#Cc2nc3c(N[C@@H]4CCN(C)C[C@@H]4F)cccn3c2SC(F)(F)F)c1 [Example 107, 3-{[3-(8-{[(3S,4R)-3-fluoro-1-methylpiperidin-4-yl]amino}-3-[(trifluoromethyl)sulfanyl]imidazo[1,2-a]pyridin-2-yl)prop-2-yn-1-yl]amino}-4-methoxy-N-methylbenzamide] | 80 to 90 | < 0.75 | ≥ 10 | ≥ 10 | < 0.75 | < 0.01 | < 5 | < 0.75 |  |  |  |  |  |  |  | 
4 | CCNC(=O)c1ccc(OC)c(NCC#Cc2nn3c(N[C@@H]4CCN(C)C[C@@H]4F)cccc3c2SC(F)(F)F)c1 [Example 285] |  |  |  |  |  |  |  |  | < 0.75 | 80 to 90 | ≥ 10 | ≥ 10 | < 0.75 | < 0.01 | 5 to 8 | < 0.75
5 | CNC(=O)c1ccc(NCC#Cc2cn3c(N[C@@H]4CCN(C)C[C@@H]4F)cccc3c2SC(F)(F)F)c(OC)c1 [Example 139, 4-{[3-(5-{[(3S,4R)-3-fluoro-1-methylpiperidin-4-yl]amino}-1-[(trifluoromethyl)sulfanyl]indolizin-2-yl)prop-2-yn-1-yl]amino}-3-methoxy-N-methylbenzamide] | > 90 | < 0.75 | ≥ 10 |  | < 0.75 | < 0.01 | 5 to 8 | < 0.75 |  |  |  |  |  |  |  | 
6 | CNC(=O)c1cc(F)c(OC)c(NCC#Cc2nc3c(N[C@@H]4CCN(C)C[C@@H]4F)cccn3c2SC(F)(F)F)c1 [Example 303] |  |  |  |  |  |  |  |  | < 0.75 | > 90 | ≥ 10 |  | < 0.75 | < 0.01 | ≥ 10 | < 0.75
7 | CCNC(=O)c1ccc(OC)c(NCC#Cc2cc3c(N[C@@H]4CCN(C)C[C@@H]4F)nccn3c2SC(F)(F)F)c1 [Example 290] |  |  |  |  |  |  |  |  | < 0.75 | > 90 | ≥ 10 |  | < 0.75 | < 0.01 | ≥ 10 | < 0.75
8 | CNC(=O)c1ccc(NCC#Cc2nc3c(N[C@H]4CCn5cncc5C4)cccn3c2SC(F)(F)F)c(OC)c1 [Example 177] | 80 to 90 | < 0.75 | ≥ 10 | ≥ 10 | < 0.75 | < 0.01 | 5 to 8 | 0.75 to 1.5 |  |  |  |  |  |  |  | 
9 | CNC(=O)c1ccc(NCC#Cc2nc3c(N[C@@H]4CCN(C)C[C@@H]4F)cccn3c2C(F)(F)F)c(OC)c1 [Example 97, 4-{[3-(8-{[(3S,4R)-3-fluoro-1-methylpiperidin-4-yl]amino}-3-(trifluoromethyl)imidazo [1,2-a]pyridin-2-yl)prop-2-yn-1-yl]amino}-3-methoxy-N-methylbenzamide] | < 70 | > 3 |  | 5 to 10 | > 3 | 0.1 to 1 | ≥ 10 | > 3 |  |  |  |  |  |  |  | 
